What all share (assay): Kinase inhibitor specificity profiling (Reaction Biology Corporation)
Holding throughout (assay type): biochemical
Design in all cases: % Enzyme Activity (relative to DMSO controls): concentration or dose not given beside the values

Experiment [1] deals with T1, panel of 370 protein kinases (Homo sapiens, UniProt P21709).
T1 construct: purchased Reaction Biology Corporation (assay service)
The settings on record: 2 h, kinase EPHA1; read-out: % Enzyme Activity (relative to DMSO controls).

Experiment [2] addresses T2, panel of 370 protein kinases (Homo sapiens, UniProt P21802).
T2 construct: purchased Reaction Biology Corporation (assay service)
The settings on record: 2 h, kinase FGFR2; read-out: % Enzyme Activity (relative to DMSO controls).

The target in experiment [3] is T3, panel of 370 protein kinases (Homo sapiens, UniProt P29597).
T3 construct: purchased Reaction Biology Corporation (assay service)
To be noted: kinase TYK2.

The target of experiment [4] is T4, panel of 370 protein kinases (Homo sapiens, UniProt P34947).
T4 construct: purchased Reaction Biology Corporation (assay service)
The settings on record: 2 h, kinase GRK5; read-out: % Enzyme Activity (relative to DMSO controls).

The target of experiment [5] is T5, panel of 370 protein kinases (Homo sapiens, UniProt P35626).
T5 construct: purchased Reaction Biology Corporation (assay service)
To be noted: 2 h, kinase GRK3; read-out: % Enzyme Activity (relative to DMSO controls).

For experiment [6], the target named is T6, panel of 370 protein kinases (Homo sapiens, UniProt P36894).
T6 construct: purchased Reaction Biology Corporation (assay service)
The settings on record: 2 h, kinase ALK3/BMPR1A; read-out: % Enzyme Activity (relative to DMSO controls).

Experiment [7] addresses T7, panel of 370 protein kinases (Homo sapiens, UniProt P46734).
T7 construct: purchased Reaction Biology Corporation (assay service)
The settings on record: 2 h, kinase MEK3; read-out: % Enzyme Activity (relative to DMSO controls).

The target of experiment [8] is T8, panel of 370 protein kinases (Homo sapiens, UniProt P51812).
T8 construct: purchased Reaction Biology Corporation (assay service)
To be noted: 2 h, kinase RSK2; read-out: % Enzyme Activity (relative to DMSO controls).

Experiment [9] concerns the target T9, panel of 370 protein kinases (Homo sapiens, UniProt Q12866).
T9 construct: purchased Reaction Biology Corporation (assay service)
The settings on record: 2 h, kinase c-MER; read-out: % Enzyme Activity (relative to DMSO controls).

For experiment [10], the target named is T10, panel of 370 protein kinases (Homo sapiens, UniProt Q15139).
T10 construct: purchased Reaction Biology Corporation (assay service)
The settings on record: 2 h, kinase PKCmu/PRKD1; read-out: % Enzyme Activity (relative to DMSO controls).

The target of experiment [11] is T11, panel of 370 protein kinases (Homo sapiens, UniProt Q15349).
T11 construct: purchased Reaction Biology Corporation (assay service)
The settings on record: 2 h, kinase RSK3; read-out: % Enzyme Activity (relative to DMSO controls).

For experiment [12], the target named is T12, panel of 370 protein kinases (Homo sapiens, UniProt Q15746).
T12 construct: purchased Reaction Biology Corporation (assay service)
The settings on record: 2 h, kinase MLCK/MYLK; read-out: % Enzyme Activity (relative to DMSO controls).

Experiment [13] has as its target T13, panel of 370 protein kinases (Homo sapiens, UniProt Q6P2M8).
T13 construct: purchased Reaction Biology Corporation (assay service)
To be noted: kinase CAMK1b.

The target in experiment [14] is T14, panel of 370 protein kinases (Homo sapiens, UniProt Q96GX5).
T14 construct: purchased Reaction Biology Corporation (assay service)
To be noted: kinase MASTL.

For experiment [15], the target named is T15, panel of 370 protein kinases (Homo sapiens, UniProt Q96RG2).
T15 construct: purchased Reaction Biology Corporation (assay service)
To be noted: 2 h, kinase PASK; read-out: % Enzyme Activity (relative to DMSO controls).

For experiment [16], the target named is T16, panel of 370 protein kinases (Homo sapiens, UniProt Q96RR4).
T16 construct: purchased Reaction Biology Corporation (assay service)
To be noted: 2 h, kinase CAMKK2; read-out: % Enzyme Activity (relative to DMSO controls).

Experiment [17] addresses T17, panel of 370 protein kinases (Homo sapiens, UniProt Q96S53).
T17 construct: purchased Reaction Biology Corporation (assay service)
The settings on record: 2 h, kinase TESK2; read-out: % Enzyme Activity (relative to DMSO controls).

In experiment [18] the target is T18, panel of 370 protein kinases (Homo sapiens, UniProt Q99759).
T18 construct: purchased Reaction Biology Corporation (assay service)
The settings on record: 2 h, kinase MEKK3; read-out: % Enzyme Activity (relative to DMSO controls).

Experiment [19] has as its target T19, panel of 370 protein kinases (Homo sapiens, UniProt Q9H093).
T19 construct: purchased Reaction Biology Corporation (assay service)
To be noted: kinase SNARK/NUAK2.

Experiment [20] concerns the target T20, panel of 370 protein kinases (Homo sapiens, UniProt Q9H3Y6).
T20 construct: purchased Reaction Biology Corporation (assay service)
The settings on record: 2 h, kinase SRMS; read-out: % Enzyme Activity (relative to DMSO controls).

Experiment [21] deals with T21, panel of 370 protein kinases (Homo sapiens, UniProt Q9P1W9).
T21 construct: purchased Reaction Biology Corporation (assay service)
To be noted: 2 h, kinase PIM2; read-out: % Enzyme Activity (relative to DMSO controls).

For experiment [22], the target named is T22, panel of 370 protein kinases (Homo sapiens, UniProt Q9UEE5).
T22 construct: purchased Reaction Biology Corporation (assay service)
The settings on record: 2 h, kinase DRAK1/STK17A; read-out: % Enzyme Activity (relative to DMSO controls).

Several values for one entry are separate records, joined by “and”; a condition that tells them apart may be missing. Equal entries are not always repeated.

The values below come from publication PMC9133015 (Nature Communications, 2022).

T3 sequence (P29597 whole entry): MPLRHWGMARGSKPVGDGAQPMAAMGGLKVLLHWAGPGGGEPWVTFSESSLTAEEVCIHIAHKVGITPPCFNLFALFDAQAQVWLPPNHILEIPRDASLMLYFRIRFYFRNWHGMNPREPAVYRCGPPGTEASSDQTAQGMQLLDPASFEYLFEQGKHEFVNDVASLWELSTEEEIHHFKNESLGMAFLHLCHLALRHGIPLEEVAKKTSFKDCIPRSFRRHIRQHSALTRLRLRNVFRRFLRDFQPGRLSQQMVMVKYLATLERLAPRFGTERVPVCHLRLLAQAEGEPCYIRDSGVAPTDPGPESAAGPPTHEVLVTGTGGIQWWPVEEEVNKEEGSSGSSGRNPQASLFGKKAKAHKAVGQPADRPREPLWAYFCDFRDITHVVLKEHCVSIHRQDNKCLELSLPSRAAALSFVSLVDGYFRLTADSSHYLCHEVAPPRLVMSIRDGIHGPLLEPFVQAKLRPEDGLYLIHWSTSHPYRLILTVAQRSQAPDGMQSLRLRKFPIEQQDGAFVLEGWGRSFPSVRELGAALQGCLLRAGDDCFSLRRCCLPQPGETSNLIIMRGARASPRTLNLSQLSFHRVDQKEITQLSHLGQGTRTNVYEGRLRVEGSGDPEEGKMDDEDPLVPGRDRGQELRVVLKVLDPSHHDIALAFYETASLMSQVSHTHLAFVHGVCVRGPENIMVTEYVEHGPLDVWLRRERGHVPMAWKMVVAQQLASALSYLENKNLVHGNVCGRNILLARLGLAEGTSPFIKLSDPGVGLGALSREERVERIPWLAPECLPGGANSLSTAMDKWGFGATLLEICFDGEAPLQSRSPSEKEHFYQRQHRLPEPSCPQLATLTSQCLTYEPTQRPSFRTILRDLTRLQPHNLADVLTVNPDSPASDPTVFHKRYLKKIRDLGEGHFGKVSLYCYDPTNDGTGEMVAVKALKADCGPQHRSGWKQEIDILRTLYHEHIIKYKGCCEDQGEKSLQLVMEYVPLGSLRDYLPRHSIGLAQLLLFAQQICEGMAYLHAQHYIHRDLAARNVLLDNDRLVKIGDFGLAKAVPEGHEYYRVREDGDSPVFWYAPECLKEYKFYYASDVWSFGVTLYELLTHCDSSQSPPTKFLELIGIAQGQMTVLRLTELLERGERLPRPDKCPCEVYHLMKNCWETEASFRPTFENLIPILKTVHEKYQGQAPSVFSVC
T13 sequence (Q6P2M8 whole entry): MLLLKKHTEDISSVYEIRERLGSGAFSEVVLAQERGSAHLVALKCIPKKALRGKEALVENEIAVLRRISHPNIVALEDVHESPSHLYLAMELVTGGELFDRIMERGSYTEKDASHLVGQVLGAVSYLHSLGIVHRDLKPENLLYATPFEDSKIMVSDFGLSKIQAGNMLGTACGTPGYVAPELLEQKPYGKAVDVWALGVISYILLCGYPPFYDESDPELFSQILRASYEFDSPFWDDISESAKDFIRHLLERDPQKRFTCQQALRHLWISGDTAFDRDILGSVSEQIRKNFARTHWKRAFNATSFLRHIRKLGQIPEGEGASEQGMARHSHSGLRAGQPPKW
T14 sequence (Q96GX5 whole entry): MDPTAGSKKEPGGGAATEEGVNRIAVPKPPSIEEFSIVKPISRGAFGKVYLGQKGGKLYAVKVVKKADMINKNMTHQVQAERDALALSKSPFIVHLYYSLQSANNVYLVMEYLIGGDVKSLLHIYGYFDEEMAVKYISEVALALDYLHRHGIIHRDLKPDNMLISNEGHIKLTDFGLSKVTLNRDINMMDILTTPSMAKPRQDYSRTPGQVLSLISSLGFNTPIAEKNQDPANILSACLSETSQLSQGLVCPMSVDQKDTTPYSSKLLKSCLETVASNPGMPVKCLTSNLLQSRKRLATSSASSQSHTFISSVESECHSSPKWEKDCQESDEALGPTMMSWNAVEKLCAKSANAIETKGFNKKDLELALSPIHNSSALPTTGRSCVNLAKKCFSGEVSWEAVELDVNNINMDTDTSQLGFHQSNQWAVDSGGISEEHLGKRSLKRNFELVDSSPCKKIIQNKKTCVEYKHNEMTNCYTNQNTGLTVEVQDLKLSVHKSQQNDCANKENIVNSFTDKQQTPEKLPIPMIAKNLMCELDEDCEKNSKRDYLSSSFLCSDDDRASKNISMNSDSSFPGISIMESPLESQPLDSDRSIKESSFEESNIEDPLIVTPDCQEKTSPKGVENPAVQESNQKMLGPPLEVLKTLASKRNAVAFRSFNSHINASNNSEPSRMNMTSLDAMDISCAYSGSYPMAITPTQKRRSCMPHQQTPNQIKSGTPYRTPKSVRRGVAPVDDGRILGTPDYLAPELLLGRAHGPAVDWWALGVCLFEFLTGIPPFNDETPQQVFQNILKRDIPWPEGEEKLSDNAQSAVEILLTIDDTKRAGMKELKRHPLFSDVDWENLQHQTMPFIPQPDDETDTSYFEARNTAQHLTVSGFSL
T19 sequence (Q9H093 whole entry): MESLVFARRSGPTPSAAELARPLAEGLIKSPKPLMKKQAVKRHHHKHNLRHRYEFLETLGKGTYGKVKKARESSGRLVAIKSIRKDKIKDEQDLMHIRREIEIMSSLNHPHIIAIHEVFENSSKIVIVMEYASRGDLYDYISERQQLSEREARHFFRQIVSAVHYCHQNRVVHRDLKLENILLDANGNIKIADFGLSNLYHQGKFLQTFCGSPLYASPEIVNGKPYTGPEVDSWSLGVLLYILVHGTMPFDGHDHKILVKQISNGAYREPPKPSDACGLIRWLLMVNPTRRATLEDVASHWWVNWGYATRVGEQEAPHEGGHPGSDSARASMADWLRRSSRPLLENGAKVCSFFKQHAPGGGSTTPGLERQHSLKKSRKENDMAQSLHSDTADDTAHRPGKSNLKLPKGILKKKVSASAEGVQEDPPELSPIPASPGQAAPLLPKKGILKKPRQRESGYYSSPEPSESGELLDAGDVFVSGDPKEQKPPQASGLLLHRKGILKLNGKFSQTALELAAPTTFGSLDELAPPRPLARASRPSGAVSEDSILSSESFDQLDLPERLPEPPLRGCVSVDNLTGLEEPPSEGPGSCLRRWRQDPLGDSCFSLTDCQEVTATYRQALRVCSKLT
T7 sequence (P46734 whole entry): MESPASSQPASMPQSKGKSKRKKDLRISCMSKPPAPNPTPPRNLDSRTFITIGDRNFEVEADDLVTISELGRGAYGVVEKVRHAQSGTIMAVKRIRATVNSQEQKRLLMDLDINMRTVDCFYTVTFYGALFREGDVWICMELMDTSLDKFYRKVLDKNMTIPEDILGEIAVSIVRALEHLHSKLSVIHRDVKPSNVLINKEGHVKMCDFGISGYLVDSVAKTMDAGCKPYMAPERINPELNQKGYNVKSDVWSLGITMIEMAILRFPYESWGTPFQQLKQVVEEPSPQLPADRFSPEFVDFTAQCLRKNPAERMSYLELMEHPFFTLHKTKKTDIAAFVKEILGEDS
T8 sequence (P51812 whole entry): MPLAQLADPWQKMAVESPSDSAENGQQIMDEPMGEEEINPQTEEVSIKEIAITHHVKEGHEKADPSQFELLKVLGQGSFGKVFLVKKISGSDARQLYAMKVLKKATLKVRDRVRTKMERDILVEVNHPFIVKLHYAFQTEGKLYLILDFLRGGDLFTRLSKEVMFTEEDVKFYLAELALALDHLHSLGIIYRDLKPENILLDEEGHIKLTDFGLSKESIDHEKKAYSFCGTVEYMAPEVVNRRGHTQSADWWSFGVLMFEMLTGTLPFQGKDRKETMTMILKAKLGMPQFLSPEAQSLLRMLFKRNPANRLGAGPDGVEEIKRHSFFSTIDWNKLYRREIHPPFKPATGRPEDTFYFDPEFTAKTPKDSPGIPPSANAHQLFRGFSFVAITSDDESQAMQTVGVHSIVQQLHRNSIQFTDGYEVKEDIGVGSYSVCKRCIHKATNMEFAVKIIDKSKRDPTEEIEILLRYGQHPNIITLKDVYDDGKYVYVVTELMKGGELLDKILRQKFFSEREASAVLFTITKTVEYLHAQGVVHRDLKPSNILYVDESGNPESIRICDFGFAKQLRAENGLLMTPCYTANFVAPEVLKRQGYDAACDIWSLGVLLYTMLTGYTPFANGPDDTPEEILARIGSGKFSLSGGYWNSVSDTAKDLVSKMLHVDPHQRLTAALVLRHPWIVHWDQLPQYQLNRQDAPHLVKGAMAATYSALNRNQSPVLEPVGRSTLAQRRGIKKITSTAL
T2 sequence (P21802 22-821): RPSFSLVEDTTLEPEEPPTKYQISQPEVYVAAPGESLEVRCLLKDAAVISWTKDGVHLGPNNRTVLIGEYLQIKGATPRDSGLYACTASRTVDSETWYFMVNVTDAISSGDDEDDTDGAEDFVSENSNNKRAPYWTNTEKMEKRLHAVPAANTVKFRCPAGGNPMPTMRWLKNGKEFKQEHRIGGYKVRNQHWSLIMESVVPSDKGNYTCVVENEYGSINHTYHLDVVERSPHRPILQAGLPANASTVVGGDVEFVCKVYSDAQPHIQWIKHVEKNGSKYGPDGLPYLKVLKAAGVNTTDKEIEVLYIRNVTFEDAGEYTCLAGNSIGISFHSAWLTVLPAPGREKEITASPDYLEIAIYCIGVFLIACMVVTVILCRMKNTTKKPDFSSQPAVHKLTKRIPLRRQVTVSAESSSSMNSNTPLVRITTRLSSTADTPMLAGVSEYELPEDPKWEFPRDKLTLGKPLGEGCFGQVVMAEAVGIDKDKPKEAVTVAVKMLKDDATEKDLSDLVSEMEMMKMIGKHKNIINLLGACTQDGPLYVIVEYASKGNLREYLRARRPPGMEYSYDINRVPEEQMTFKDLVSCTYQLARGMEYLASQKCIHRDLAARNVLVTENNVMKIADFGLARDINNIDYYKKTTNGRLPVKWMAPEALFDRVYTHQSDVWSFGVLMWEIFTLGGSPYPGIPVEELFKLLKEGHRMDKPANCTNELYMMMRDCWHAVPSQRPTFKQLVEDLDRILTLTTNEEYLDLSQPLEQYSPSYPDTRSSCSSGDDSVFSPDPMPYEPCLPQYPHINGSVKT

In the case of `CCN1CCN(C(=O)c2ccc(Nc3ncc(F)c(-c4ccc5nc(N(C)C)sc5c4)n3)nc2)CC1` [YK-2-69], the remaining activity at 1 µM in experiment [1] worked out at 109%; in [2], 86.2%; in experiment [4], 106%; in [5] it was 108%; in [6], 168%; in experiment [7], 103%. The remaining activity at 1 µM in experiment [8] came to 74.5%; in experiment [9], 96.8%; in experiment [10], 89.6%; in [11] it was 104%; in [12], 97.5%; in experiment [15], 98.3%. Further, the remaining activity at 1 µM in [16] turned out to be 94.6%; in [17], 98.2%; in [18] it was 106%; in experiment [20], 80.7%; in [21] it was 90.4%; in experiment [22], 59%. Moreover, the “% Enzyme Activity (relative to DMSO controls)” value in [3] is 89.12% and 88.94%; in experiment [13] it was 94.21% and 93.36%; in experiment [14], 100.08% and 99.24%; in [19] it was 95.57% and 95.00%.
